In brackets after ≈: the same amount, converted by molar mass.
Target: T1, mushroom tyrosinase
T1 construct: gene PPO3; PDB 2Y9X used only for docking
Experiment: L-dopachrome formation, absorbance at […] nm
Type: biochemical, Agaricus bisporus
Conditions: L-DOPA as substrate (diphenolase); 0.1 M phosphate buffer, room temperature, 30 min

Row | Compound | IC50 Values (mg/mL) / L-DOPA as the Substrate [mg/mL]
1 | OC[C@H]1O[C@@H](Oc2ccc(O)cc2)[C@H](O)[C@@H](O)[C@@H]1O [Arbutin, reference compound] | 3.44 ± 0.04 (≈ 12.6 mM)
2 | Oc1cc(O)c2c(c1)O[C@H](c1ccc(O)c(O)c1)[C@@H](O)C2 [Catechin] | 6.42 ± 0.45 (≈ 22.1 mM)

Results, then the compound that gave them:

Row | IC50 Values (mg/mL) / L-DOPA as the Substrate [mg/mL] | Compound
3 | 3.93 ± 0.09 (≈ 20.2 mM) | COc1cc(/C=C/C(=O)O)ccc1O [Ferulic acid]
4 | 3.62 ± 0.08 (≈ 10 mM) | O=C(/C=C/c1ccc(O)c(O)c1)O[C@H](Cc1ccc(O)c(O)c1)C(=O)O [Rosmarinic acid]
5 | 4.19 ± 0.15 (≈ 25.5 mM) | O=C(O)/C=C/c1ccccc1O [o-Coumaric acid]

Source: paper PMC11642236, “Valorization of Hom Thong Banana Peel (Musa sp., AAA Group) as an Anti-Melanogenic Agent Through Inhibition of Pigmentary Genes and Molecular Docking Study” (International Journal of Molecular Sciences, 2024)
